Laboratory results as given in patent US6203976A, “Methods of preparing compositions comprising chemicals capable of transcriptional modulation” (OSI Pharmaceuticals, Inc., priority 1994, dated 2001).

What was measured:
[1] = tested on: human G-CSF (G21) promoter; assay: High-throughput luciferase reporter assay, G-CSF promoter (Screen III); conditions: for scored as positive in repeat assays, G-CSF: 48 independent luciferase assays performed on the same day; for FOLD INDUCTION RELATIVE TO SOLVENT CONTROL, GCSF: Screen III activators; for FOLD INDUCTION RELATIVE TO SOLVENT CONTROL, GCSF / FOLD INHIBITION RELATIVE TO SOLVENT CONTROL, GCSF: G21 cells, 6 hours; for FOLD INHIBITION RELATIVE TO SOLVENT CONTROL, GCSF: Screen III inhibitors
[2] = tested on: human growth hormone (532) promoter; assay: High-throughput luciferase reporter assay, human Growth Hormone promoter (Screen III); assay type: cell-based; conditions: 532 cells, 6 hours; for FOLD INDUCTION RELATIVE TO SOLVENT CONTROL, hGH: Screen III activators; for FOLD INHIBITION RELATIVE TO SOLVENT CONTROL, hGH: Screen III inhibitors
[3] = tested on: MMTV (M10) promoter; assay: High-throughput luciferase reporter assay, MMTV promoter (Screen III); assay type: cell-based, mouse; conditions: M10 cells, 6 hours; for FOLD INDUCTION RELATIVE TO SOLVENT CONTROL, MMTV: Screen III activators; for FOLD INHIBITION RELATIVE TO SOLVENT CONTROL, MMTV: Screen III inhibitors
Method: pMluci and pSV2Neo, an antibiotic resistance plasmid (112), were co-transfected into NIH/3T3 mouse fibroblast cells using the calcium phosphate precipitation method (103) with a commercially available kit (Pharmacia, Piscataway N.J.). Two days later, cells were transferred to media containing 0.4 mg/ml G418 and were grown for an additional 10-14 days. G418-resistant clones were isolated by standard methods. Once sufficient cell numbers were obtained, clones were analyzed based on several criteria: constitutive luciferase production, induction of luciferase expression by dexamethasone (1 μm, Sigma, St. Louis, Mo.), satisfactory attachment to microtiter plates used in the high-throughput screen and acceptable standard deviation in multiple luciferase expression assays (see below for assay protocol). This analysis was carried out using the luciferase assay conditions described above. Of the clones which satisfied the above criteria for the high throuphput screen, one clone, M10, was selected for use.

Structure (SMILES) | scored as positive in repeat assays, G-CSF [1] | FOLD INDUCTION RELATIVE TO SOLVENT CONTROL, GCSF [1] | FOLD INDUCTION RELATIVE TO SOLVENT CONTROL, hGH [2] | FOLD INDUCTION RELATIVE TO SOLVENT CONTROL, MMTV [3] | FOLD INHIBITION RELATIVE TO SOLVENT CONTROL, GCSF [1] | FOLD INHIBITION RELATIVE TO SOLVENT CONTROL, hGH [2] | FOLD INHIBITION RELATIVE TO SOLVENT CONTROL, MMTV [3]
CC(=O)n1ccnc1 [Chemical #58, 1-Acetylimidazole] | scored as positives in every single one of these assays | 6.03 fold | 0.17 fold | 0.42 fold |  |  | 
CC(=O)N(C)c1ccc(N)cc1 [Chemical #1374, 4'-Amino-N-methylacetanilide] | scored as positives in every single one of these assays | 11.03 fold | 0.05 fold | 1.05 fold |  |  | 
CN(C)c1ccc(C(=C2C=CC(=[N+](C)C)C=C2)c2ccc(N(C)C)cc2)cc1 [Chemical #1780, Crystal Violet] | scored as positives in every single one of these assays | 20.39 fold | 0.38 fold | 1.15 fold |  |  | 
O=NN(O)c1ccccc1 [Chemical #1783, Cupferron] | scored as positive only in half of the 48 repeat assays | 6.55 fold | 0.32 fold | 0.89 fold |  |  | 
CC(=O)c1c(C)cc(NC(C)(C)C)nc1NC(C)(C)C [compound 40] |  | 5.62 fold | 0.62 fold | 0.27 fold |  |  | 
CC(=O)c1ccc[nH]1 [compound 70] |  | 0.43 fold | 9.26 fold | 0.85 fold |  |  | 
CN(C)c1ccc2cc3ccc(N(C)C)cc3nc2c1 [compound 80] |  | 5.87 fold | 0.66 fold | 0.83 fold |  |  | 
CN(C)c1ccc(C(=N)c2ccc(N(C)C)cc2)cc1 [compound 183] |  |  |  |  | 0.72 fold | 4.00 fold | 0.70 fold
O=C(c1ccccc1)c1ccncc1 [compound 209] |  |  |  |  |  | 1.08 fold | 0.81 fold
CCOC(=O)N1C(=O)c2ccccc2C1=O [compound 237] |  | 4.77 fold | 0.06 fold | 0.62 fold |  |  | 
Cc1c(C(=O)O)c(O)cc2c1C(=O)c1c(O)c([C@@H]3O[C@H](CO)[C@@H](O)[C@H](O)[C@H]3O)c(O)c(O)c1C2=O [compound 240] |  |  |  |  | 0.63 fold | 5.26 fold | 0.80 fold
ClCCN1CCCCC1 [compound 254] |  | 4.09 fold | 0.90 fold | 0.98 fold |  |  | 
NC(=O)N1c2ccccc2CCc2ccccc21 [compound 299] |  | 0.53 fold | 5.46 fold | 0.47 fold |  |  | 
CCn1c(=O)[nH]c2ccccc21 [compound 322] |  | 0.60 fold | 11.18 fold | 1.12 fold |  |  | 
O=c1c(O)c(-c2ccc(O)c(O)c2)oc2cc(O)ccc12 [compound 325] |  | 0.14 fold | 5.42 fold | 1.0 fold |  |  | 
Nc1nc(N)nc(N)n1 [compound 364] |  | 3.67 fold | 1.18 fold | 1.07 fold |  |  | 
O=c1c(O)c(-c2ccc(O)cc2O)oc2cc(O)cc(O)c12 [compound 371] |  |  |  |  |  | 0.41 fold | 0.89 fold
